PubChem BioAssay (NCI)
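Assay format: 96-well plates, 48-hour exposure. The concentration for full growth arrest is given as TGI.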

Legend:
Assay in all cases: inhibition of tumour cell growth, NCI panel, 48 h
DU-145 prostate = test system: DU-145 prostate
OVCAR-8 ovarian = test system: OVCAR-8 ovarian
COLO 205 colon = test system: COLO 205 colon
ACHN renal = test system: ACHN renal
HT29 colon = test system: HT29 colon
RXF 393 renal = test system: RXF 393 renal
OVCAR-4 ovarian = test system: OVCAR-4 ovarian
RPMI-8226 leukemia = test system: RPMI-8226 leukemia
HCT-15 colon = test system: HCT-15 colon
M14 melanoma = test system: M14 melanoma

Measured: TGI

Cc1cccc2c1c(=O)c1c(O)cc3c(c1n2C)C=CC(C)(C)O3
> 100 µM: all assays above

O=C(/C=C/c1ccc(O)c(O)c1)NC(COC(=O)/C=C/c1ccc(O)c(O)c1)C(=O)O (stereo not given)
> 100 µM: all assays above

COc1ccccc1N1C(=O)CSC1c1cc(OC)c(OC)c(OC)c1 (stereo not given)
> 100 µM: all assays above
